The target of the experiment is T1, Solute carrier family 15 member 1 (Homo sapiens, UniProt P46059).
T1 sequence (P46059 whole entry): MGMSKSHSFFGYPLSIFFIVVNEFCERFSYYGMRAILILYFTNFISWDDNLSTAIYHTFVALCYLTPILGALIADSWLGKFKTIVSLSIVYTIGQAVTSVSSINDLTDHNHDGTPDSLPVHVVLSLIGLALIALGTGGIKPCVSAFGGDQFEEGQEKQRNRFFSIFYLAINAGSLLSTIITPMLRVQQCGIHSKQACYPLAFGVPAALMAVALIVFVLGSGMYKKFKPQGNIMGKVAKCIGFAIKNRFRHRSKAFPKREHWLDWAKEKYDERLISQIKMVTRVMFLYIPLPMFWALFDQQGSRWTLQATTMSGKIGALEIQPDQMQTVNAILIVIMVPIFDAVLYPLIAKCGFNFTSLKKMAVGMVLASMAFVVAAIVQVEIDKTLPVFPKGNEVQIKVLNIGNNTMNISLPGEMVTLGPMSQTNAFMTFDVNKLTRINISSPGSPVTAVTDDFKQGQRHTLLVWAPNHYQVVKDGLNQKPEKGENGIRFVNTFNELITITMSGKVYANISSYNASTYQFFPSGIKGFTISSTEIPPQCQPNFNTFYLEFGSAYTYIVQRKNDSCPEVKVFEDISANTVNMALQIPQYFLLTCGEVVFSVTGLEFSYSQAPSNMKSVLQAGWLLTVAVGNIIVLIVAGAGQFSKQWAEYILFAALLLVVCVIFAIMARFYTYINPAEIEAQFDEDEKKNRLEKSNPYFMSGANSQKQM
Put plainly: Inhibition constant (Ki) for human intestinal peptide carrier.

In general, pKi refers to the negative decadic logarithm of the Ki, by convention in mol/L. High values mean a small Ki, low ones a large Ki.

Molecules are shown by their SMILES. pKi: −log10 of the molar value. Where a SMILES comes first, the peptide text is derived from it. [ ]: non-standard residue; d: D form. The star is where a group is joined. Pip = O=C(O)[C@@H]1CCCCN1; NMeA = CN[C@@H](C)C(=O)O; Nle = CCCC[C@H](N)C(=O)O; Orn = NCCC[C@H](N)C(=O)O; Abu = CC[C@H](N)C(=O)O; Boc = CC(C)(C)OC(=O)*; Aib = CC(C)(N)C(=O)O; Sar = CNCC(=O)O

As to `CC(N)C(=O)Nc1cccc(-c2ccccc2)c1` (stereo not given), the pKi was 3.54. For `N[C@@H](CO)C(=O)N1CCC[C@H]1C(=O)O` (H-Ser-Pro-OH) the value was 3.89. For `C[C@H](N)C(=O)N(C)CC(=O)O` (H-Ala-[Sar]-OH) the value was 3.60; for `C[C@H](N)C(=O)NC(C)(C)C(=O)O` (H-Ala-[Aib]-OH), 2.92; for `C[C@H](NC(=O)[C@@H](N)Cc1ccc(Cc2ccccc2)cc1)C(=O)O`, 4.70. `C[C@@H](N)C(=O)N1CCC[C@H]1C(=O)O` (stereo in doubt; 56) gave a negative logarithm of the Ki (pKi) of 2.31. For `N[C@@H](Cc1cc2ccccc2[nH]1)C(=O)N1CCC[C@H]1C(=O)O` the value was 3.89. With `CCCC[C@H](NC(=O)[C@H](C)N)C(=O)O` (H-Ala-[Nle]-OH) the figure was 4.05. With `C[C@H](N)C(=O)NCC(=O)O` (H-Ala-Gly-OH) the figure was 3.85; with `C[C@H](N)C(=O)N[C@@H](Cc1ccc(Cc2ccccc2)cc1)C(=O)O`, 3.92.

`N[C@@H](CCC(=O)O)C(=O)N1CCC[C@H]1C(=O)O` (H-Glu-Pro-OH) had a pKi of 3.85. For `CC(N)C(=O)Nc1ccccc1` (stereo not given) the value was 2.54; for `COC(=O)c1ccc(NC(=O)C(C)N)cc1` (stereo not given), 2.96; for `CC(NC(=O)C(N)Cc1ccc(OCc2ccccc2)cc1)C(=O)O` (stereo not given), 5.00. With `N[C@@H](Cc1ccc(O)cc1)C(=O)N[C@@H](Cc1ccccc1)C(=O)O` (H-Tyr-Phe-OH) the figure was 4.05.

`N[C@@H](CC(=O)O)C(=O)N[C@@H](CC(=O)O)C(=O)O` (H-Asp-Asp-OH) showed a pKi of 3.39. The compound `C[C@@H](N)C(=O)N1CCC[C@H]1C(=O)O` (stereo in doubt; 69) had a pKi of 1.82. With `CN[C@@H](C)C(=O)N[C@@H](C)C(=O)O` (H-[NMeA]-Ala-OH) the figure was 2.74; with `CC(=O)N[C@@H](C)C(=O)N[C@@H](C)C(=O)O` (Ac-Ala-Ala-OH), under 1.52; with `O=C(O)[C@H](Cc1ccc(O)cc1)NC(=O)[C@@H]1CCCN1` (H-Pro-Tyr-OH), 3.14. For `NCC(=O)N[C@@H](CC(=O)O)C(=O)O` (H-Gly-Asp-OH) the value was 3.46.

As to `CC(N)C(=O)NCCC(=O)O` (stereo not given), the pKi was 2.57. This pKi lies 0.89 log units lower than the previous one. With `CC(C)[C@H](N)C(=O)N[C@@H](Cc1ccc(O)cc1)C(=O)O` (H-Val-Tyr-OH) the figure was 4.00; with `O=C(O)CC[C@H](NC(=O)[C@@H]1CCCN1)C(=O)O` (H-Pro-Glu-OH), 1.70.

In turn, `NCC(=O)N[C@@H](Cc1c[nH]cn1)C(=O)O` (H-Gly-His-OH) had a negative logarithm of the Ki (pKi) of 3.00. For `CC(N)C(=O)NCCS(=O)(=O)O` (stereo not given) the value was 2.92.

The compound `C[C@H](N)C(=O)N1CCC[C@H]1C(=O)O` had a negative-log Ki (pKi) of 3.82. Compared with the last compound, the pKi is 0.90 log units higher.

For `C[C@H](NC(=O)[C@@H]1CCCN1)C(=O)O` (H-Pro-Ala-OH), the pKi was 2.02.

`CC(N)C(=S)N1CCCC1C(=O)O` (stereo not given) had a negative-log Ki (pKi) of 3.48. For `C[C@H](N)C(=O)N[C@@H](Cc1c[nH]cn1)C(=O)O` (H-Ala-His-OH) the value was 3.48; for `CC(N)C(=O)N1CCCCC1` (stereo not given), 1.89.

As for `CCCC[C@H](N)C(=O)N[C@@H](C)C(=O)O` (H-[Nle]-Ala-OH), the negative logarithm of the Ki (pKi) was 3.85.

With `CC(N)C(=O)Nc1cccc(C(=O)O)c1` (stereo not given), the pKi was 3.51. Against the preceding compound, the pKi is 0.34 log units lower. Take `CC(NC(=O)CN)C(=O)O` (stereo not given): the negative logarithm of the Ki (pKi) was 3.42. With `CN(CC(=O)O)C(=O)CN` [GLYCYLSARCOSINE] (H-Gly-[Sar]-OH) the figure was 3.08.

The compound `O=C(O)[C@H](CO)NC(=O)[C@@H]1CCCN1` (H-Pro-Ser-OH) gave a pKi of 1.85. With `NCC(=O)NCC(=O)O` (H-Gly-Gly-OH) the figure was 3.00. With `CC(N)C(=O)Nc1ccc(C(=O)O)cc1` (stereo not given) the figure was 2.04.

In the case of `CC(N)C(=O)NCc1ccccc1` (stereo not given), the pKi was 1.85. This pKi and that of the compound before are within 0.2 log units of each other.

In turn, `NCC(=O)CCC(=O)O` [AMINOLEVULINIC ACID] had a pKi of 3.10. `C[C@@H](N)C(=O)N[C@H](C)C(=O)O` (H-[dA]-[dA]-OH) showed a negative-log Ki (pKi) of under 1.52. With `CC(N)C(=O)Nc1c(F)c(F)c(F)c(F)c1F` (stereo not given) the figure was 2.51.

Turning to `CNCC(=O)N(C)CC(=O)O`, the pKi is 1.49. With `CC(C)[C@H](N)C(=O)N[C@@H](C)C(=O)O` (H-Val-Ala-OH) the figure was 4.05; with `C[C@H](NC(=O)[C@@H](N)CCC(=O)O)C(=O)O` (H-Glu-Ala-OH), 3.60. For `CC(N)C(=O)Nc1ccccc1Cl` (stereo not given) the value was 2.11; for `Cc1cccc(NC(=O)C(C)N)c1` (stereo not given), 3.39. With `C[C@H](NC(=O)[C@@H](N)Cc1cc2ccccc2[nH]1)C(=O)O` the figure was 3.80. Compound `CC(N)C(=O)Nc1ccc(Cl)cc1` (stereo not given) showed a negative-log Ki (pKi) of 3.48. For `CC(C)C[C@H](N)C(=O)N1CCC[C@H]1C(=O)O` (H-Leu-Pro-OH) the value was 3.96. With `CC(N)C(=O)Nc1ccccc1-c1ccccc1` (stereo not given) the figure was 1.78; with `CC(NC(=O)[C@H](N)Cc1ccc(OCc2ccccc2)cc1)C(=O)O` (stereo not given in full), 2.85; with `O=C(O)[C@H](Cc1ccccc1)NC(=O)[C@@H]1CCCN1` (H-Pro-Phe-OH), 2.72.

The compound `C[C@H](NC(=O)[C@H](C)NC(=O)OC(C)(C)C)C(=O)O` (Boc-Ala-Ala-OH) showed a negative-log Ki (pKi) of under 1.52.

Regarding `CNCC(=O)N1CCC[C@H]1C(=O)O` (H-[Sar]-Pro-OH), the pKi was 2.80. For `CC(N)C(=O)N1CCSC1` (stereo not given) the value was 1.96; for `CC(NC(=O)CCN)C(=O)O` (stereo not given), 2.32; for `COC(=O)c1ccccc1NC(=O)C(C)N` (stereo not given), 3.05. With `N[C@@H](Cc1ccccc1)C(=O)N1CCC[C@H]1C(=O)O` (H-Phe-Pro-OH) the figure was 3.89; with `CC(C)C[C@H](NC(=O)[C@@H]1CCCN1)C(=O)O` (H-Pro-Leu-OH), 3.33; with `C[C@H](NC(=O)[C@@H](N)CO)C(=O)O` (H-Ser-Ala-OH), 3.85. With `CC(C)CC(NC(=O)C(O)C(N)Cc1ccccc1)C(=O)O` (stereo not given) the figure was 3.40. For the compound `C[C@H](N)C(=O)N[C@@H](CCCN)C(=O)O` (H-Ala-[Orn]-OH), the pKi is 3.01. Consider `C[C@H](NC(=O)[C@@H](N)CC(=O)O)C(=O)O` (H-Asp-Ala-OH), for which the pKi is 3.49. With `C[C@H](N)C(=O)N[C@@H](Cc1ccc(O)cc1)C(=O)O` (H-Ala-Tyr-OH) the figure was 3.82; with `C[C@H](NC(=O)[C@@H](N)Cc1c[nH]cn1)C(=O)O` (H-His-Ala-OH), 3.32. For `CC(C)C[C@H](N)C(=O)N[C@@H](C)C(=O)O` [LEU-ALA] (H-Leu-Ala-OH) the value was 3.92. Regarding `NCCCCC(=O)O` [5-AMINOVALERIC ACID], the negative-log Ki (pKi) is 1.76. For `CC(N)C(=O)Nc1cccc(Cl)c1` (stereo not given) the value was 3.34. For `Cc1ccc(NC(=O)C(C)N)cc1` (stereo not given) the value was 3.47. `C[C@H](NC(=O)[C@@H](N)CC(=O)O)C(N)=O` (H-Asp-Ala-NH2) gave a pKi of 2.27.

For `N[C@@H](Cc1ccccc1)C(=O)N[C@@H](Cc1ccccc1)C(=O)O` (H-Phe-Phe-OH), the pKi was 3.96. For `C[C@H](N)C(=O)N[C@@H](CCC(=O)O)C(=O)O` (H-Ala-Glu-OH) the value was 3.49; for `N[C@@H](CS)C(=O)NCC(=O)O`, 3.70; for `C[C@H](N)C(=O)N1CCCC[C@H]1C(=O)O` (H-Ala-[Pip]-OH), 4.22.

As to `CCC(C)C(N)C(=O)N1CCSC1` (stereo not given), the pKi is 2.20. With `O=C(O)CNC(=O)[C@@H]1CCCN1` (H-Pro-Gly-OH) the figure was 1.66; with `C[C@H](NC(=O)[C@@H](N)Cc1ccc(O)cc1)C(=O)O`, 4.05; with `NCCC(=O)NCCC(=O)O`, under 1.52. For `CC(C)C[C@H](NC(=O)CN)C(=O)O` the value was 3.80; for `C[C@H](NC(=O)[C@@H](C)N)C(=O)O` (H-[dA]-Ala-OH), 2.70; for `CC1NC(=O)C(CCCN)NC1=O` (stereo not given), 2.64. For `C[C@H](N)C(=O)N[C@@H](CO)C(=O)O` (H-Ala-Ser-OH) the value was 3.85; for `CC(C)[C@H](N)C(=O)N1CCC[C@H]1C(=O)O` (H-Val-Pro-OH), 4.22; for `CC(N)C(=O)Nc1ccccc1C(=O)O` (stereo not given), 2.55. The compound `CC1NC(=O)C(CCCCN)NC1=O` (stereo not given) gave a pKi of 2.27. With `CN(CC(=O)O)C(=O)[C@@H](N)Cc1ccccc1` the figure was 3.68; with `CCC(C)C(N)C(=O)N1CCCCC1` (stereo not given), 2.25.

`NCCC(=O)NCC(=O)O` showed a pKi of 2.14. For `N[C@@H](Cc1ccc(O)cc1)C(=O)N1CCC[C@H]1C(=O)O` (H-Tyr-Pro-OH) the value was 3.80; for `CC(N)C(=O)NC(C)C(=O)O` (stereo not given), 3.92.

`CC[C@H](NC(=O)[C@H](C)N)C(=O)O` (H-Ala-[Abu]-OH) gave a pKi of 4.15. With `C[C@H](N)C(=O)N[C@H](C)C(=O)O` (H-Ala-[dA]-OH) the figure was 2.38; with `C[C@@H](N)C(=O)N1CCC[C@@H]1C(=O)O`, under 1.52. With `C[C@@H](NC(=O)[C@@H](N)CC(=O)O)C(=O)OCc1ccccc1` the figure was 2.08.

Source of the values: ChEMBL document CHEMBL1145942, “Three-dimensional quantitative structure-activity relationship analyses of peptide substrates of the mammalian H+/peptide cotransporter PEPT1” (J Med Chem, 2003).
